Values after ≈ are worked out from the molar mass of the structure shown.
Legend:
Assay in all cases: ≥ marks a high value that may be exact or a test limit, other limits are often not marked, values filed in µg/mL are converted to µM
[1] = test system: Bacillus subtilis ATCC 6633
[2] = test system: Staphylococcus aureus ATCC 43300
[3] = test system: Staphylococcus aureus ATCC 6538
[4] = test system: Candida albicans ATCC 90028
[5] = test system: Escherichia coli NCTC 10418
[6] = test system: Candida albicans ATCC 10231
[7] = test system: Escherichia coli ATCC 25922
[8] = test system: Pseudomonas aeruginosa ATCC 9027
Bacillus subtilis = test system: Bacillus subtilis
Escherichia coli = test system: Escherichia coli
Candida albicans = test system: Candida albicans
Staphylococcus aureus = test system: Staphylococcus aureus
[9] = test system: Pseudomonas aeruginosa ATCC 27853
[10] = test system: Staphylococcus aureus ATCC 25923
[11] = test system: Escherichia coli DH5alpha

CC[C@H](C)[C@@H]1NC(=O)[C@H](C)NC(=O)[C@@H](NC(=O)[C@@H](NC(=O)[C@@H](NC(=O)[C@H](C)NC(=O)[C@@H]2CCCN2C(=O)CNC(=O)[C@@H](NC(=O)[C@H](CCCCN)NC(=O)[C@@H](NC(=O)[C@@H](NC(=O)[C@H](CC(C)C)NC(=O)[C@H](CCCN=C(N)N)NC(=O)[C@H](CC(C)C)NC(=O)[C@@H](NC(=O)CNC(=O)[C@@H]2CCCN2C(=O)[C@H](CC(C)C)NC(=O)[C@@H](N)Cc2ccccc2)C(C)C)C(C)C)[C@@H](C)O)C(C)C)C(C)C)C(C)C)CSSC[C@@H](C(=O)O)NC(=O)[C@H](CC(N)=O)NC(=O)[C@H](CCCN=C(N)N)NC(=O)[C@H]([C@@H](C)O)NC1=O [FLPGVLRLVTKVGPAVVCAITRNC]
MIC [1]: 6.3 µM (≈ 15.9 µg/mL) | MIC [2]: 3.1 µM (≈ 7.83 µg/mL) | MIC [3]: 3.1 µM (≈ 7.83 µg/mL) | MIC [4]: ≥ 50 µM

CC[C@H](C)[C@H](NC(=O)CNC(=O)[C@@H]1CCCN1C(=O)[C@@H]1CCCN1C(=O)[C@H](Cc1ccccc1)NC(=O)[C@H](Cc1ccccc1)NC(=O)[C@@H]1CCCN1C(=O)[C@H](Cc1ccccc1)NC(=O)[C@@H](N)CO)C(=O)N[C@H]1CSSC[C@@H](C(=O)O)NC(=O)[C@H](CCCN=C(N)N)NC(=O)[C@H](CCCCN)NC(=O)[C@H](CC(C)C)NC(=O)[C@H](CCCN=C(N)N)NC(=O)[C@H](CCCCN)NC1=O [SFPFFPPGICKRLKRC]
MIC [5]: ≥ 35 µM

N[C@@H](CC(=O)O)C(=O)N[C@@H](CC(=O)O)C(=O)N[C@@H](CC(=O)O)C(=O)N[C@@H](Cc1ccc(O)cc1)C(=O)O [DDDY]
MIC [6]: 4290 µM (≈ 2260 µg/mL) | MIC [7]: 8580 µM (≈ 4520 µg/mL) | MIC [8]: 68700 µM (≈ 36200 µg/mL)

CC[C@H](C)[C@@H]1NC(=O)[C@H](Cc2ccc(O)cc2)NC(=O)[C@@H](NC(=O)[C@H](CCCN=C(N)N)NC(=O)[C@H](CO)NC(=O)[C@@H](N)[C@@H](C)O)CSSC[C@@H](C(=O)N[C@@H](CO)C(=O)O)NC(=O)[C@H](C(C)C)NC(=O)[C@H](C(C)C)NC(=O)[C@H](CCCCN)NC(=O)[C@H](CCCN=C(N)N)NC(=O)[C@H](CCCN=C(N)N)NC(=O)[C@H](Cc2ccc(O)cc2)NC(=O)CNC1=O [TSRCYIGYRRKVVCS]
MIC (Bacillus subtilis): 9.77 µM (≈ 17.5 µg/mL) | MIC (Escherichia coli): 9.77 µM (≈ 17.5 µg/mL) | MIC (Candida albicans): 4.89 µM (≈ 8.74 µg/mL) | MIC (Staphylococcus aureus): 19.5 µM (≈ 35 µg/mL)

CC[C@H](C)[C@H](NC(=O)[C@H](CC(C)C)NC(=O)[C@H](CC(C)C)NC(=O)[C@H](CC(=O)O)NC(=O)[C@H](CCCCN)NC(=O)[C@@H](NC(=O)[C@H](C)NC(=O)CNC(=O)[C@H](CC(C)C)NC(=O)[C@@H](NC(=O)CN)C(C)C)C(C)C)C(=O)NCC(=O)N[C@@H](C)C(=O)NCC(=O)N[C@@H](CCCCN)C(=O)N[C@@H](CO)C(=O)N[C@@H](C)C(=O)N[C@@H](C)C(=O)N[C@@H](CCC(N)=O)C(=O)N[C@@H](CO)C(=O)N[C@H](C(=O)N[C@@H](CC(C)C)C(=O)N[C@@H](CCCCN)C(=O)N[C@H](C(=O)N[C@@H](CC(C)C)C(=O)N[C@@H](CO)C(=O)N[C@H]1CSSC[C@@H](C(=O)O)NC(=O)[C@H](CC(=O)O)NC(=O)[C@H](CC(N)=O)NC(=O)[C@H](CO)NC(=O)[C@H](CC(C)C)NC(=O)[C@H](CCCCN)NC1=O)[C@@H](C)O)C(C)C [GVLGAVKDLLIGAGKSAAQSVLKTLSCKLSNDC]
MIC (Bacillus subtilis): 5.04 µM (≈ 16.4 µg/mL) | MIC (Escherichia coli): 2.52 µM (≈ 8.21 µg/mL) | MIC (Candida albicans): 0.629 µM (≈ 2.05 µg/mL) | MIC (Staphylococcus aureus): 1.26 µM (≈ 4.11 µg/mL)

CC[C@H](C)[C@H](NC(=O)[C@H](Cc1ccccc1)NC(=O)[C@@H](NC(=O)[C@H](C)NC(=O)[C@H](CCCN=C(N)N)NC(=O)[C@H](CCCCN)NC(=O)[C@H](CCCN=C(N)N)NC(=O)[C@H](CCCCN)NC(=O)[C@H](C)NC(=O)[C@H](CC(C)C)NC(=O)[C@@H](NC(=O)[C@@H](N)Cc1ccc(O)cc1)C(C)C)[C@@H](C)CC)C(=O)O [YVLAKRKRAIFI]
MIC [9]: > 200 µM | MIC [10]: > 200 µM | MIC (Bacillus subtilis): ≥ 200 µM | MIC [11]: ≥ 200 µM

CC[C@H](C)[C@H](NC(=O)[C@H](CO)NC(=O)[C@H](C)NC(=O)[C@@H](NC(=O)[C@H](CCCCN)NC(=O)[C@@H](N)CCCCN)[C@@H](C)CC)C(=O)NCC(=O)N[C@@H](CCCCN)C(=O)N[C@@H](CCC(=O)O)C(=O)N[C@H](C(=O)N[C@@H](CC(C)C)C(=O)N[C@@H](CCCCN)C(=O)N[C@@H](C)C(=O)N[C@@H](CC(C)C)C(N)=O)C(C)C [KKIASIGKEVLKAL]
MIC (Bacillus subtilis): ≥ 75 µM | MIC (Escherichia coli): 100 µM (≈ 150 µg/mL)
